This experiment concerns T1, Debia-MDR.
T1 construct: gene DebiaDRAFT_04514; full-length, N-terminal His6-tag (pET100, tag kept), E. coli Rosetta 2 (DE3); monomer 38,272 Da predicted, approx. 41 kDa with tag; native about 170 kDa, homotetramer; forward primer […]; (N-terminus MAKMMKT by translation)
Nature of the experiment: spectrophotometric NADH consumption at […] nm. Type of experiment: biochemical, Desulfococcus biacutus. The note with it: reduction direction, NADH co-substrate (0.1 mM in the general assay); 50 uM ZnCl2, 3 mM DTT, anoxic; general assay 25 mM MOPS pH 7.2, 30 °C.

In the case of `CC(C)=O` [acetone], the Km was determined as 40 µM.

What is called Km is the concentration of substrate that gives half-maximal velocity.

Values taken from publication PMC5123277, “Cloning, functional expression and characterization of a bifunctional 3-hydroxybutanal dehydrogenase /reductase involved in acetone metabolism by Desulfococcus biacutus” (BMC Microbiology, 2016).
